Experimental findings from US9115137B2, “2,3,4,5-tetrahydro-1H-pyrido[4,3-B]indole compounds and methods of use thereof” (priority 2008, dated 2015) are described below.

Like-named read-outs stand apart in the source and are kept apart here.

In test [1] the target is T1, human recombinant serotonin (5-Hydroxytryptamine) 5-HT2C receptor (Homo sapiens, UniProt P28335).
T1 construct: expressed in transfected cells; host or cells: CHO-K1 cells
T1 sequence (P28335 33-458): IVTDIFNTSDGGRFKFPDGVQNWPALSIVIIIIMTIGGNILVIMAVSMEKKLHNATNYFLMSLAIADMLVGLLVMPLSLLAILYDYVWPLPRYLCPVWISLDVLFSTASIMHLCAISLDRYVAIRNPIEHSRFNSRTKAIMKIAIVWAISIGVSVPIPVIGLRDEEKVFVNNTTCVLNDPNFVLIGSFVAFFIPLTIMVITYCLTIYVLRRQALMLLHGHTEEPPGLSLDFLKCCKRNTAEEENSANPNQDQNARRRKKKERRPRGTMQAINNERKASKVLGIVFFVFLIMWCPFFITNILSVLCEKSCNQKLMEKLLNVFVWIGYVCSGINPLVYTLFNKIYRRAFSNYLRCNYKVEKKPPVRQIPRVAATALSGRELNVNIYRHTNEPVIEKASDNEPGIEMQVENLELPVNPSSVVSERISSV
Put plainly: Serotonin 5-HT2C radioligand binding ([3H]Mesulergine). As to conditions: read-out: Serotonin (1 μM) 5-HT2C, percent inhibition of specific binding. The protocol:
To evaluate in radioligand binding assays the activity of compounds of the invention, human recombinant serotonin (5-Hydroxytryptamine) 5-HT2C receptor expressed in Chinese hamster ovary (CHO-K1) cells (Wolf, W. A. and Schutz, J. S., J. Neurochem. 69:1449, 1997) in a modified Tris-HCl buffer (50 mM Tris-HCl, pH 7.4, 0.1% Ascorbic Acid, 10 μM Pargyline) was used. Compounds of the invention were incubated with 1 nM [^3H]Mesulergine for 60 minutes at 25° C. Non-specific binding was estimated in the presence of 1 μM Mianserin. Receptor proteins were filtered and washed, the filters were then counted to determine [^3H]Mesulergine specifically bound. Compounds were screened at 1 μM or lower, using 1% DMSO as vehicle. Biochemical assay results are presented as the percent inhibition of specific binding in Table 7.

The target in test [2] is T2, human recombinant histamine H1 receptor (Homo sapiens, UniProt P35367).
T2 construct: expressed in transfected cells; host or cells: CHO cells
Put plainly: Histamine H1 radioligand binding ([3H]Pyrilamine). To be noted: read-out: Histamine Binding (1 μM) H1, percent inhibition of specific binding. The protocol: To evaluate in radioligand binding assays the activity of compounds of the invention, human recombinant histamine H1 receptor expressed in Chinese hamster ovary (CHO) cells (De Backer, M. D. et al., Biochem. Biophys. Res. Comm. 197(3):1601, 1993) in a modified Tris-HCl buffer (50 mM Tris-HCl, pH 7.4, 2 mM MgCl2, 100 mM NaCl, 250 mM Sucrose) was used. Compounds of the invention were incubated with 1.2 nM [^3H]Pyrilamine for 180 minutes at 25° C. Non-specific binding was estimated in the presence of 1 μM pyrilamine. Receptor proteins were filtered and washed, the filters were then counted to determine [^3H]Pyrilamine specifically bound. Compounds were screened at 1 μM, using 1% DMSO as vehicle. Biochemical assay results are presented as the percent inhibition of specific binding in Table 5.

In test [3] the target is T3, human recombinant serotonin (5-Hydroxytryptamine) 5-HT6 receptor (Homo sapiens, UniProt P50406).
T3 construct: expressed in transfected cells; host or cells: human HeLa cells
Put plainly: Serotonin 5-HT6 radioligand binding ([3H]LSD). To be noted: read-out: Serotonin (1 μM) 5-HT6, percent inhibition of specific binding. The protocol: To evaluate in radioligand binding assays the activity of compounds of the invention, human recombinant serotonin (5-Hydroxytryptamine) 5-HT6 receptor expressed in human HeLa cells (Monsma, F. J. Jr. et al., Mol. Pharmacol. 43:320, 1993) in a modified Tris-HCl buffer (50 mM Tris-HCl, pH 7.4, 150 mM NaCl, 2 mM Ascorbic Acid, 0.001% BSA) was used. Compounds of the invention were incubated with 1.5 nM [3H]Lysergic acid diethylamide (LSD) for 120 minutes at 37° C. Non-specific binding was estimated in the presence of 5 μM Serotonin (5-HT). Receptor proteins were filtered and washed, the filters were then counted to determine [3H]LSD specifically bound. Compounds were screened at 1 μM or lower, using 1% DMSO as vehicle. Biochemical assay results are presented as the percent inhibition of specific binding in Table 7.

The target in test [4] is T4, human recombinant dopamine D2L receptor (Homo sapiens, UniProt P14416).
T4 construct: expressed in transfected cells; host or cells: CHO cells
Put plainly: Dopamine D2L radioligand binding ([3H]Spiperone). As to conditions: read-out: Dopamine (1 μM) D2L, percent inhibition of specific binding. The protocol:
To evaluate in radioligand binding assays the activity of compounds of the invention, human recombinant dopamine D2L receptor expressed in Chinese hamster ovary (CHO) cells (Grandy, D. K. et al. Proc. Natl. Acad. Sci. USA. 86:9762, 1989; Hayes, G. et al., Mol. Endocrinol. 6:920, 1992) in a modified Tris-HCl buffer (50 mM Tris-HCl, pH 7.4, 1.4 mM Ascorbic Acid, 0.001% BSA, 150 mM NaCl) was used. Compounds of the invention were incubated with 0.16 nM [^3H]Spiperone for 120 minutes at 25° C. Non-specific binding was estimated in the presence of 10 μM Haloperidol. Receptor proteins were filtered and washed, the filters were then counted to determine [^3H]Spiperone specifically bound. Compounds were screened at 1 μM or lower, using 1% DMSO as vehicle. Biochemical assay results are presented as the percent inhibition of specific binding in Table 6.

T3 sequence (P50406 whole entry): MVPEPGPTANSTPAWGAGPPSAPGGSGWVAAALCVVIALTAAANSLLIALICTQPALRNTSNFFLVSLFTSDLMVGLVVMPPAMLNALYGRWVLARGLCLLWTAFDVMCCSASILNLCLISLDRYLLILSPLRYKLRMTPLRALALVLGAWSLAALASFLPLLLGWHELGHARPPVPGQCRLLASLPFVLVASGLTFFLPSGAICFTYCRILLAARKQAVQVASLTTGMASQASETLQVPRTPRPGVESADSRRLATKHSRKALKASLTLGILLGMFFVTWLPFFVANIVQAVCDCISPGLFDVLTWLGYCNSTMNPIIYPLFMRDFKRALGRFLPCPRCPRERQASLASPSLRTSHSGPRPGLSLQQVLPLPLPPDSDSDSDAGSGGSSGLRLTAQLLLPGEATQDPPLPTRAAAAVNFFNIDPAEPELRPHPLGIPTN
T2 sequence (P35367 whole entry): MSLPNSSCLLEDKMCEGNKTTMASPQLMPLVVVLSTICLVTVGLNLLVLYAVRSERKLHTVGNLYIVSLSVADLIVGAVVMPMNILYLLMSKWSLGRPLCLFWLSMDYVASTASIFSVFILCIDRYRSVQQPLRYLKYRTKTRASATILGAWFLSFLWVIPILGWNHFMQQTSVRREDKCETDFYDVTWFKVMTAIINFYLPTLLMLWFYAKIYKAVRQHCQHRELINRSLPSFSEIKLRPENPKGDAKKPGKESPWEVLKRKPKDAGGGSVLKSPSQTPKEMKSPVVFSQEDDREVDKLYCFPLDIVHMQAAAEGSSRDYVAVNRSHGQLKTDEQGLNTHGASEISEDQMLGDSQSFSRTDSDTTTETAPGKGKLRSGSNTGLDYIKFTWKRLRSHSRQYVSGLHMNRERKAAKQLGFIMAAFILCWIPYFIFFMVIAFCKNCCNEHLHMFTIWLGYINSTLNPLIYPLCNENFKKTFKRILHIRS
T4 sequence (P14416 whole entry): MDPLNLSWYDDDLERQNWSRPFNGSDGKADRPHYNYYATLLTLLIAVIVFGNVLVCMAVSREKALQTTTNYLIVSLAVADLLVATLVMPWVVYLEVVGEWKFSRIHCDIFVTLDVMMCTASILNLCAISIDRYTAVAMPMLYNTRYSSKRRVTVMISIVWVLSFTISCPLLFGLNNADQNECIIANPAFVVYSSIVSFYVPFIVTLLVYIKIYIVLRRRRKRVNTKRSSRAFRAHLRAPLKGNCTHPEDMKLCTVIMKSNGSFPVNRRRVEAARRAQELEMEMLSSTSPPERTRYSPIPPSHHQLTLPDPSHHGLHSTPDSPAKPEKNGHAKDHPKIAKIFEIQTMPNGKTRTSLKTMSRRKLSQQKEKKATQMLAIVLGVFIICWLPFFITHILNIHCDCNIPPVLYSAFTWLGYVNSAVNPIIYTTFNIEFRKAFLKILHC

As for `CN1CCc2c(c3cc(Cl)ccc3n2CCBr)C1` [CD88, 5-(2-bromoethyl)-8-chloro-2-methyl-2,3,4,5-tetrahydro-1H-pyrido[4,3-b]indole], the inhibition at 1 µM in test [1] was 84%; in test [2] it was 98%; in test [3], 87%; in test [4], 27%.
`CN1CCc2c(c3cc(Cl)ccc3n2CCO)C1` [CD89, 2-(8-chloro-2-methyl-3,4-dihydro-1H-pyrido[4,3-b]indol-5(2H)-yl)ethanol]: the inhibition at 1 µM was found to be 84% in test [1] (compound at 1 μM, CHO-K1 cells); 92% in test [2] (compound at 1 μM, CHO cells); 36% in test [3] (compound at 1 μM, HeLa cells); 0% in test [4] (compound at 1 μM, CHO cells).
In the same order, the values of `Cc1ccc2c(c1)c1c(n2CCO)CCN(C)C1` [CD90, 2-(2,8-dimethyl-3,4-dihydro-1H-pyrido[4,3-b]indol-5(2H)-yl)ethanol] are 91%, 60%, 7% and -8%.
In the same order, the values of `Cc1ccc2c(c1)c1c(n2CCBr)CCN(C)C1` [CD91, 5-(2-bromoethyl)-2,8-dimethyl-2,3,4,5-tetrahydro-1H-pyrido[4,3-b]indole] are 98%, 98%, 88% and 15%.
In the same order, the values of `Cc1ccc2c(c1)c1c(n2CCC#N)CCN(C)C1` [CD92, 3-(2,8-dimethyl-3,4-dihydro-1H-pyrido[4,3-b]indol-5(2H)-yl)propanenitrile] are 61%, 99%, 47% and 3%.
`CN1CCc2c(c3cc(Cl)ccc3n2CCC#N)C1` [CD94, 3-(8-chloro-2-methyl-3,4-dihydro-1H-pyrido[4,3-b]indol-5(2H)-yl)propanenitrile]: the inhibition at 1 µM in test [1] (compound at 1 μM, CHO-K1 cells) was found to be 71%; in test [2] (compound at 1 μM, CHO cells) it was 97%; in test [3] (compound at 1 μM, HeLa cells) it was 40%; in test [4] (compound at 1 μM, CHO cells), 1%.
Regarding `CCOC(=O)Cn1c2c(c3cc(Cl)ccc31)CN(C)CC2` [Compound 10, ethyl 2-(8-chloro-1,2,3,4-tetrahydro-2-methylpyrido[4,3-b]indol-5-yl)acetate], the inhibition at 1 µM in test [1] (compound at 1 μM, CHO-K1 cells) came to 92%; in test [2] (compound at 1 μM, CHO cells), 99%; in test [3] (compound at 1 μM, HeLa cells) it was 69%; in test [4] (compound at 1 μM, CHO cells), 12%.
In the same order, the values of `CC(C)OC(=O)Cn1c2c(c3cc(Cl)ccc31)CN(C)CC2` [Compound 11, isopropyl 2-(8-chloro-1,2,3,4-tetrahydro-2-methylpyrido[4,3-b]indol-5-yl)acetate] are 71%, 101%, 66% and 10%.
In the same order, the values of `CN1CCc2c(c3cc(Cl)ccc3n2CC(=O)OC(C)(C)C)C1` [Compound 12, tert-butyl 2-(8-chloro-1,2,3,4-tetrahydro-2-methylpyrido[4,3-b]indol-5-yl)acetate] are 83%, 101%, 67% and 23%.
In the same order, the values of `CN1CCc2c(c3cc(Cl)ccc3n2CC(=O)OCc2ccccc2)C1` [Compound 13, benzyl 2-(8-chloro-1,2,3,4-tetrahydro-2-methylpyrido[4,3-b]indol-5-yl)acetate] are 91%, 96%, 101% and 38%.
Turning to `CN1CCc2c(c3cc(Cl)ccc3n2CC(=O)OCC2CCCCC2)C1` [Compound 14, cyclohexylmethyl 2-(8-chloro-1,2,3,4-tetrahydro-2-methylpyrido[4,3-b]indol-5-yl)acetate], the inhibition at 1 µM in test [1] (compound at 1 μM, CHO-K1 cells) was found to be 94%; in test [2] (compound at 1 μM, CHO cells), 98%; in test [3] (compound at 1 μM, HeLa cells), 106%; in test [4] (compound at 1 μM, CHO cells) it was 31%.
In the same order, the values of `CN1CCc2c(c3cc(Cl)ccc3n2CC(=O)OC2CCCC2)C1` [Compound 15] are 94%, 99%, 96% and 26%.
In the same order, the values of `CC(C)OC(=O)CCn1c2c(c3cc(Cl)ccc31)CN(C)CC2` [Compound 17, isopropyl 3-(8-chloro-1,2,3,4-tetrahydro-2-methylpyrido[4,3-b]indol-5-yl)propanoate] are 91%, 96%, 99% and 13%.
Regarding `CN1CCc2c(c3cc(Cl)ccc3n2CCC(=O)OCc2ccccc2)C1` [Compound 19, benzyl 3-(8-chloro-1,2,3,4-tetrahydro-2-methylpyrido[4,3-b]indol-5-yl)propanoate], the inhibition at 1 µM in test [1] (compound at 1 μM, CHO-K1 cells) was found to be 96%; in test [2] (compound at 1 μM, CHO cells) it was 101%; in test [3] (compound at 1 μM, HeLa cells) it was 100%; in test [4] (compound at 1 μM, CHO cells), 31%.
In the same order, the values of `CN1CCc2c(c3cc(Cl)ccc3n2CCC(=O)OCC2CCCCC2)C1` [Compound 20, cyclohexylmethyl 3-(8-chloro-1,2,3,4-tetrahydro-2-methylpyrido[4,3-b]indol-5-yl)propanoate] are 88%, 95%, 93% and 19%.
In the same order, the values of `CN1CCc2c(c3cc(Cl)ccc3n2CCC(=O)OC2CCCC2)C1` [Compound 21, cyclopentyl 3-(8-chloro-1,2,3,4-tetrahydro-2-methylpyrido[4,3-b]indol-5-yl)propanoate] are 100%, 98%, 100% and 35%.
In the case of `CCNC(=O)Cn1c2c(c3cc(C)ccc31)CN(C)CC2` [Compound 22, N-ethyl-2-(1,2,3,4-tetrahydro-2,8-dimethylpyrido[4,3-b]indol-5-yl)acetamide], the inhibition at 1 µM in test [1] (compound at 1 μM, CHO-K1 cells) is 81%; in test [2] (compound at 1 μM, CHO cells) it was 85%; in test [3] (compound at 1 μM, HeLa cells), 27%; in test [4] (compound at 1 μM, CHO cells) it was -2%.
